Several values for one entry are separate records, joined by “and”; a condition that tells them apart may be missing. Equal values may be shown once. Where a name gives a salt, the structure may show the parent alone. Read-outs that look alike come from different tables or passages of the source.
Test system: C. elegans
[1] = Table S2, C. elegans SS assay, 110 μM, 0 h, averages of 4 data points
[2] = Table S2, C. elegans SS assay, 110 μM, 24 h, averages of 4 data points

## C[C@@H]1O[C@@H](OC[C@H]2O[C@@H](Oc3c(-c4ccc(O)c(O)c4)oc4cc(O)cc(O)c4c3=O)[C@H](O)[C@@H](O)[C@@H]2O)[C@H](O)[C@H](O)[C@H]1O.O [Rutin (hydrate)]
[1]
  Percentage of motility inhibition 0 h: 2%
[2]
  Percentage of motility inhibition 24 h: 8%

## C[C@@H]1O[C@@H](OC[C@H]2O[C@@H](Oc3c(-c4ccc(O)c(O)c4)oc4cc(O)cc(O)c4c3=O)[C@H](O)[C@@H](O)[C@@H]2O)[C@H](O)[C@H](O)[C@H]1O.O.O.O [Rutin (trihydrate)]
[1]
  Percentage of motility inhibition 0 h: 2%
[2]
  Percentage of motility inhibition 24 h: 9%

## COc1ccc(-c2oc3c(CC=C(C)C)c(O)cc(O)c3c(=O)c2O[C@@H]2O[C@@H](C)[C@H](O)[C@@H](O)[C@H]2O[C@@H]2O[C@H](CO)[C@@H](O)[C@H](O)[C@H]2O)cc1 [Sagittatoside A]
[1]
  Percentage of motility inhibition 0 h: 43%
[2]
  Percentage of motility inhibition 24 h: 12%

## CC1(C)CC[C@@]2(CO)C(=C3C=C[C@@H]4[C@@]5(C)CC[C@H](O)[C@@](C)(CO)[C@@H]5CC[C@@]4(C)[C@]3(C)C[C@H]2O)C1 [Saikogenin D]
[1]
  Percentage of motility inhibition 0 h: 27%
[2]
  Percentage of motility inhibition 24 h: 14%

## CC1(C)CC[C@]23CO[C@@]4(C=C[C@@H]5[C@@]6(C)CC[C@H](O)[C@@](C)(CO)[C@@H]6CC[C@@]5(C)[C@]4(C)C[C@@H]2O)[C@@H]3C1 [Saikogenin F]
[1]
  Percentage of motility inhibition 0 h: 53%
[2]
  Percentage of motility inhibition 24 h: 46%

## C[C@H]1O[C@@H](O[C@H]2CC[C@@]3(C)[C@@H](CC[C@]4(C)[C@@H]3C=CC3=C5CC(C)(C)CC[C@]5(CO)[C@H](O)C[C@]34C)[C@]2(C)CO)[C@H](O)[C@@H](O[C@@H]2O[C@H](CO)[C@@H](O)[C@H](O)[C@H]2O)[C@H]1O [Saikosaponin B2]
[1]
  Percentage of motility inhibition 0 h: 19%
[2]
  Percentage of motility inhibition 24 h: 11%

## CO[C@@H]1C=C2[C@@H]3CC(C)(C)CC[C@]3(CO)[C@H](O)C[C@@]2(C)[C@]2(C)CC[C@H]3[C@](C)(CO)[C@@H](O[C@@H]4O[C@H](C)[C@H](O)[C@H](O[C@@H]5O[C@H](CO)[C@@H](O)[C@H](O)[C@H]5O)[C@H]4O)CC[C@]3(C)[C@@H]12 [Saikosaponin B4]
[1]
  Percentage of motility inhibition 0 h: 13%
[2]
  Percentage of motility inhibition 24 h: 36%

## C[C@@H]1O[C@@H](O[C@@H]2[C@H](O)[C@@H](O)[C@H](O[C@H]3CC[C@@]4(C)C(CC[C@]5(C)C4C=C[C@]46OC[C@@]7(CCC(C)(C)CC74)[C@@H](O)C[C@]65C)C3(C)C)O[C@@H]2CO[C@@H]2O[C@H](CO)[C@@H](O)[C@H](O)[C@H]2O)[C@H](O)[C@H](O)[C@H]1O (stereo partly shown) [Saikosaponin C]
[1]
  Percentage of motility inhibition 0 h: 24%
[2]
  Percentage of motility inhibition 24 h: 0%

## C[C@H]1O[C@@H](O[C@H]2CC[C@@]3(C)[C@@H](CC[C@]4(C)[C@@H]3C=C[C@]35OC[C@@]6(CCC(C)(C)C[C@H]63)[C@H](O)C[C@]54C)[C@]2(C)CO)[C@H](O)[C@@H](O[C@@H]2O[C@H](CO)[C@@H](O)[C@H](O)[C@H]2O)[C@H]1O [Saikosaponin D]
[1]
  Percentage of motility inhibition 0 h: 34%
[2]
  Percentage of motility inhibition 24 h: 52%

## C[C@@H]1O[C@@H](O[C@H]2[C@H](O)[C@@H](O)[C@H](O[C@H]3CC[C@]4(C)[C@H]5CC=C6[C@@H]7CC(C)(C)CC[C@]7(CO)[C@@H](O)C[C@@]6(C)[C@]5(C)CC[C@H]4C3(C)C)O[C@@H]2CO[C@@H]2O[C@H](CO)[C@@H](O)[C@H](O)[C@H]2O)[C@H](O)[C@H](O)[C@H]1O [Saikosaponin F]
[1]
  Percentage of motility inhibition 0 h: 1%
[2]
  Percentage of motility inhibition 24 h: 0%

## CC[C@@H](C(=O)[C@@H](C)[C@@H](O)[C@H](C)[C@@H]1O[C@@H]([C@@H](CC)C(=O)O)CC[C@@H]1C)[C@H]1O[C@]2(C=C[C@@H](O)[C@]3(CC[C@@](C)([C@H]4CC[C@](O)(CC)[C@H](C)O4)O3)O2)[C@H](C)C[C@@H]1C [Salinomycin (sodium salt)]
[1]
  Percentage of motility inhibition 0 h: 28%
[2]
  Percentage of motility inhibition 24 h: 18%

## C[n+]1cc2c3c(ccc2c2ccc4cc5c(cc4c21)OCO5)OCO3.[Cl-] [Sanguinarine (chloride)]
[2]
  Percentage of motility inhibition 24 h: 20% and 27%

## CCOC(=O)NCCCC(=O)NCCc1ccccc1 [Santacruzamate A]
[1]
  Percentage of motility inhibition 0 h: 0%
[2]
  Percentage of motility inhibition 24 h: 0%

## CC(C)(C)NC(=O)[C@@H]1C[C@@H]2CCCC[C@@H]2CN1C[C@@H](O)[C@H](Cc1ccccc1)NC(=O)[C@H](CC(N)=O)NC(=O)c1ccc2ccccc2n1.CS(=O)(=O)O [Saquinavir (Mesylate)]
[1]
  Percentage of motility inhibition 0 h: 0%
[2]
  Percentage of motility inhibition 24 h: 10%

## Cl.O=C(O)c1cn(-c2ccc(F)cc2)c2cc(N3CCNCC3)c(F)cc2c1=O [Sarafloxacin (hydrochloride)]
[1]
  Percentage of motility inhibition 0 h: 32%
[2]
  Percentage of motility inhibition 24 h: 3%

## COC(=O)C1=COC2OC3CC1C2C(C)O3 (stereo not shown) [Sarracenin]
[1]
  Percentage of motility inhibition 0 h: 11%
[2]
  Percentage of motility inhibition 24 h: 27%

## COc1ccc(-c2cc(=O)c3c(O)cc(O)c(-c4cc(-c5cc(=O)c6c(O)cc(OC)cc6o5)ccc4OC)c3o2)cc1 [Sciadopitysin]
[1]
  Percentage of motility inhibition 0 h: 0%
[2]
  Percentage of motility inhibition 24 h: 21%

## CC1(C)CCC[C@]2(C)[C@H]3CC(=O)O[C@]3(C)CC[C@@H]12 [Sclareolide]
[1]
  Percentage of motility inhibition 0 h: 1%
[2]
  Percentage of motility inhibition 24 h: 25%

## CN1[C@@H]2CC(O)C[C@H]1[C@@H]1O[C@@H]12 (stereo partly shown) [Scopine]
[1]
  Percentage of motility inhibition 0 h: 13%
[2]
  Percentage of motility inhibition 24 h: 5%

## COc1ccc(-c2cc(=O)c3c(OC)c(OC)c(OC)cc3o2)cc1 [Scutellarein tetramethyl ether]
[1]
  Percentage of motility inhibition 0 h: 0%
[2]
  Percentage of motility inhibition 24 h: 0%

## C=C[C@H]1[C@H](O[C@@H]2O[C@H](CO)[C@@H](O)[C@H](O)[C@H]2O)OC=C(C(=O)OC)[C@H]1CC(=O)O [Secoxyloganin]
[1]
  Percentage of motility inhibition 0 h: 0%
[2]
  Percentage of motility inhibition 24 h: 3%

## Clc1ccc(C(Cn2ccnc2)OCc2csc3c(Cl)cccc23)c(Cl)c1.O=[N+]([O-])O (stereo not shown) [Sertaconazole (nitrate)]
[1]
  Percentage of motility inhibition 0 h: 40%
[2]
  Percentage of motility inhibition 24 h: 6%

## COC(=O)C1=CO[C@@H](O[C@@H]2O[C@H](CO)[C@@H](O)[C@H](O)[C@H]2O)[C@@H]2[C@@]3(C)O[C@H]3[C@@H](O)[C@]12O [Sesamoside]
[1]
  Percentage of motility inhibition 0 h: 4%
[2]
  Percentage of motility inhibition 24 h: 25%

## C[C@]1(O)C[C@@H](O)[C@@H]2C(C(=O)O)=CO[C@@H](O[C@@H]3O[C@H](CO)[C@@H](O)[C@H](O)[C@H]3O)[C@@H]21 [Shanziside]
[1]
  Percentage of motility inhibition 0 h: 1%
[2]
  Percentage of motility inhibition 24 h: 4%

## CC(C)=CCC[C@]1(C)CC[C@]2(C)[C@H]3CC[C@@]4(C)[C@@H](CCC(=O)[C@@H]4C)[C@]3(C)CC[C@@]2(C)C1 [Shionone]
[1]
  Percentage of motility inhibition 0 h: 24%
[2]
  Percentage of motility inhibition 24 h: 52%

## C[C@H](CC[C@@H](O[C@@H]1O[C@H](CO[C@@H]2O[C@H](CO)[C@@H](O)[C@H](O)[C@H]2O)[C@@H](O)[C@H](O)[C@H]1O[C@@H]1O[C@H](CO)[C@@H](O)[C@H](O)[C@H]1O)C(C)(C)O)[C@H]1CC[C@@]2(C)[C@@H]3CC=C4[C@@H](CC[C@H](O[C@@H]5O[C@H](CO)[C@@H](O)[C@H](O)[C@H]5O)C4(C)C)[C@]3(C)[C@H](O)C[C@]12C [Siamenoside I]
[1]
  Percentage of motility inhibition 0 h: 16%
[2]
  Percentage of motility inhibition 24 h: 10%

## COc1cc([C@@H]2Oc3c(O)cc([C@H]4Oc5cc(O)cc(O)c5C(=O)[C@@H]4O)cc3[C@H]2CO)ccc1O [Silychristin]
[1]
  Percentage of motility inhibition 0 h: 33%
[2]
  Percentage of motility inhibition 24 h: 2%

## COc1cc(/C=C/C(=O)OCC[N+](C)(C)C)cc(OC)c1O.N#C[S-] [Sinapine (thiocyanate)]
[1]
  Percentage of motility inhibition 0 h: 0%
[2]
  Percentage of motility inhibition 24 h: 0%

## COc1cc(/C=C/C(=O)OCC[N+](C)(C)C)cc(OC)c1O [Sinapine]
110 µM
  Percentage of motility inhibition 0 h: 0%
  Percentage of motility inhibition 24 h: 1%

## C=CC/C(=N\OS(=O)(=O)[O-])S[C@@H]1O[C@H](CO)[C@@H](O)[C@H](O)[C@H]1O.O.[K+] [Sinigrin (hydrate)]
[1]
  Percentage of motility inhibition 0 h: 0%
[2]
  Percentage of motility inhibition 24 h: 19%

## C=CC/C(=N/OS(=O)(=O)[O-])S[C@@H]1OC(CO)[C@@H](O)C(O)C1O.[K+] (stereo partly shown) [Sinigrin]
[1]
  Percentage of motility inhibition 0 h: 0%
[2]
  Percentage of motility inhibition 24 h: 0%

## COC1=C[C@@H]2[C@@H]3Cc4ccc(OC)c(O)c4[C@]2(CCN3C)CC1=O.Cl [Sinomenine hydrochloride]
[2]
  Percentage of motility inhibition 24 h: 0% and 8%

## COC1=C[C@@H]2[C@@H]3Cc4ccc(OC)c(O)c4[C@]2(CCN3C)CC1=O [Sinomenine]
[2]
  Percentage of motility inhibition 24 h: 3% and 0%

## C[C@H]1CC[C@@H]2N(C1)C[C@H]1[C@@H]3C[C@H]4[C@@H](CC(=O)[C@H]5C[C@@H](O)CC[C@@]54C)[C@@H]3CC[C@H]1[C@]2(C)O [Sipeimine]
[1]
  Percentage of motility inhibition 0 h: 0%
[2]
  Percentage of motility inhibition 24 h: 9%

## CN[C@@H]1[C@@H](O)[C@@H](O[C@@H]2[C@@H](O)[C@H](O[C@H]3OC(CN)=CC[C@H]3N)[C@@H](N)C[C@H]2N)OC[C@]1(C)O.CN[C@@H]1[C@@H](O)[C@@H](O[C@@H]2[C@@H](O)[C@H](O[C@H]3OC(CN)=CC[C@H]3N)[C@@H](N)C[C@H]2N)OC[C@]1(C)O.O=S(=O)(O)O.O=S(=O)(O)O.O=S(=O)(O)O.O=S(=O)(O)O.O=S(=O)(O)O [Sisomicin (sulfate)]
[1]
  Percentage of motility inhibition 0 h: 2%
[2]
  Percentage of motility inhibition 24 h: 0%
